Source: patent US11066399B2, “Ferroportin inhibitors” (Vifor (International) AG, priority 2015, dated 2021)

How the values were obtained:
[1] = target: T1, human Fpn-GFP fusion protein (Homo sapiens, UniProt Q9NP59); experiment: Ferroportin Internalization and Degradation Assay (FACS); type: cell-based; conditions: average (AVE) of multiple measurements, Fpn-GFP MFI, HEK-293 cell line #354, FACS
T1 construct: expressed in transfected cells; host or cells: HEK-293 cell line #354 (derivative of HEK-293 Tet-ON Advanced, Clontech)
T1 sequence (Q9NP59 1-571): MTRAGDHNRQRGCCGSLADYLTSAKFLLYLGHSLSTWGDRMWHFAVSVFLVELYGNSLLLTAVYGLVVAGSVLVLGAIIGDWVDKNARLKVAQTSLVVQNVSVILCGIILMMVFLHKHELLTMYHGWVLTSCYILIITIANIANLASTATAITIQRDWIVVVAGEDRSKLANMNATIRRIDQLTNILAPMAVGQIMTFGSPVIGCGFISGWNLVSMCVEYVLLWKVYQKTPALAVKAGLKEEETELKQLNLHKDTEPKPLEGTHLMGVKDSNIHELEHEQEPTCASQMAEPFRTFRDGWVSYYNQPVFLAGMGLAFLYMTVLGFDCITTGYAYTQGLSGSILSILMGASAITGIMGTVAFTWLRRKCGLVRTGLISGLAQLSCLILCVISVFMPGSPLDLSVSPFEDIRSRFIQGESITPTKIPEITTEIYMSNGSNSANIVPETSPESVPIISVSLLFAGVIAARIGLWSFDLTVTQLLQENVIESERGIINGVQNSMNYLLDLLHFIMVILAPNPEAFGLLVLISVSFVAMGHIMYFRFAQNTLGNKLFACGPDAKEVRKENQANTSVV
Experimental: Growing HEK-293 #354 cells in doxycycline containing media induced expression of human Fpn-GFP fusion protein on the cell surface. […] Small molecular weight Fpn inhibitor compounds were tested for dose-dependent effects on the Fpn-GFP mean fluorescence intensity (MFI) on HEK-293 cell line #354, as described below. HEK #354 cells were harvested from ca. 80% confluent cultures, seeded at 0.6×10^6 cells/ml in DMEM/F12 GlutaMAX™ medium (Invitrogen, Cat. 31331-028) containing 10% FBS (Clontech, Cat. 631106), 1% Penicillin-Streptomycin (Invitrogen, Cat. 15140-122), 200 μg/ml Hygromycin B (Invitrogen, Cat. 10687-010), Blasticidin 5 μg/ml, (Invitrogen, Cat. R210-01), 4 μg/ml doxycycline (Clontech, Cat. 631311), 50 μl per well of 384 well plates (Greiner; Cat. 781091) and grown at 37° C. with 5% CO2. After overnight incubation, 10 μl/well of dilution series of the test compounds were added in quadruplicates and plates were further incubated overnight at 37° C. with 5% CO2. Cells were washed once with FACS buffer (PBS containing 1% FBS, 2 mM EDTA and 0.05% NaN3), harvested in FACS buffer with 0.5 μg/ml propidium iodide (Sigma, Cat. P4864) and analyzed in a flow cytometer (CANTO™ II, BD Biosciences) equipped with high throughput sampler. Live HEK #354 cells were gated as propidium iodide negative population and analyzed for expression of Fpn-GFP.

[2] = target: T2, human Fpn-GFP fusion construct (Homo sapiens, UniProt Q9NP59); experiment: Inhibition of ferroportin mediated iron export activity in an iron response assay (BLAzer); type: cell-based; conditions: average (AVE) of multiple measurements; HEK-293 cell line #354
T2 construct: expressed in transfected cells; host or cells: HEK-293 cell line #354 (derivative of HEK-293 Tet-ON Advanced, Clontech)
T2 sequence (Q9NP59 1-571): T1 sequence (Q9NP59 1-571)
Excerpt: Intracellular iron levels are indirectly measured in this assay by monitoring the activity of a beta-lactamase (BLA) reporter gene fused to the human ferritin promoter and the associated iron regulatory element (IRE) contained within the 5′ untranslated region of the ferritin mRNA. Expression of ferroportin (Fpn) in such a cell line leads to iron efflux and lower iron levels as reflected by lower activity of the reporter gene. On the other hand, inhibition of Fpn-mediated iron efflux results in elevated cellular iron levels which is detected as increased reporter gene activity. Small molecular weight Fpn inhibitor compounds were tested for dose-dependent effects in this in vitro iron response assay as described below.
The HEK-293 cell line #354 was generated by stable integration of (i) a human Fpn-GFP fusion construct inserted in a derivative of the doxycycline-inducible pTRE-Tight-BI plasmid (Clontech, Cat. 631068) and (ii) a human ferritin promoter-BLA reporter gene into a derivative of the HEK-293 Tet-ON Advanced cell line (Clontech). […] After overnight incubation, 10 μl/well of dilution series of the test compounds were added in quadruplicates and plates were further incubated overnight at 37° C. with 5% CO2. Cells were washed 3 times with HBSS leaving 25 μl per well. BLA activity was detected by adding 5 μl/well of the GeneBlazer reagent CCF4-AM (Invitrogen, Cat. K1085) to the cells. After incubation of the plates in the dark at 18° C. for 60 min., blue and green fluorescence signals were measured in a Safire2 fluorescence plate reader (Tecan) with excitation at 410 nm and emissions at 458 nm (blue) and 522 nm (green). The ratio of blue/green fluorescence as a measure for BLA activity was calculated and EC50 values were determined with the calculated blue/green fluorescence ratios as described for the hepcidin internalization assay.

SMILES | EC50 [1] | EC50 [2] | DC50 ([1]; read-out: EC50 (the source's name))
O=C(NCc1ncccc1F)c1cnc(CCNCCc2nc3ccccc3[nH]2)o1 [Example 1] | 220 nM | 930 nM | 
O=C(NCc1ncccc1F)c1cnc(C2CN(CCc3nc4ccccc4[nH]3)C2)o1 [Example 2] | 630 nM | 1030 nM | 
O=C(NCc1ncccc1F)c1csc(CCNCc2nc3ccccc3[nH]2)n1 [Example 40] | 810 nM | 1450 nM | 
O=C(NCc1ncccc1F)c1cnn(CCNCCc2cc3ccccc3[nH]2)c1 [Example 277] |  | 170 nM | 69 nM
